According to patent US20230111910A1, “PD-1/PD-L1 INHIBITOR, PREPARATION METHOD THEREFOR, AND USE THEREOF” (SHANGHAI SYNERGY PHARMACEUTICAL SCIENCES CO., LTD., priority 2020, published 2023):
Counter-ions that a name gives are not always drawn. Like-named read-outs stand apart in the source and are kept apart here.

Assay: Pharmacokinetic experiment in rats, LC/MS/MS
Assay type: in vivo
Conditions: male, rat, whole blood, SD rats; for AUC: read-out: Area under the curve (AUC, ng/mL.h); for half-life: read-out: Half life (T1/2, h) (converted); for bioavailability: p.o. 10 mg/kg vs i.v. 2 mg/kg, read-out: Bioavailability (F%); for Cmax: read-out: Blood concentration (Cmax, ng/mL)
Protocol: Taking SD rats as an example, the drug concentrations in the plasma of rats at different times after i.g. and i.v. administration of compounds of Examples 1, 5, 6, 8, 12, 13, 15, 18, 19, 22, 25, 27 and 29, respectively, were determined by the liquid chromatography-tandem mass spectrometry (LS/MS/MS) method, and the relevant pharmacokinetic parameters were calculated to evaluate the pharmacokinetic properties of example compounds of the present invention in rats.
Healthy adult SD rats, SPF grade, male, purchased from Sippe-Bk Lab Animal Co., Ltd., Shanghai, license number SCXK (Shanghai) 2018-0006, animal certificate number: 20180006006321.
A certain amount of compound was weighed, dissolved in 5% dimethyl sulfoxide (DMSO), subjected to vortex and sonication, added with 0.5% sodium carboxymethyl cellulose (CMC-Na), and sonicated, to prepare a homogeneous solution.
Before administration and 5 min, 15 min, 0.5 h, 1 h, 2 h, 4 h, 6 h, 8 h and 24 h after administration, orbital blood was collected, 0.2 milliliters (mL) of blood being collected each time, and placed in an anticoagulant tube, mixed well, and stored in a −20° C. refrigerator for later use.
The content of the compound in rat whole blood was determined by liquid chromatography-tandem mass spectrometry (LS/MS/MS).
The pharmacokinetic parameters of the compounds after administration were calculated using the non-compartmental model of WinNonLin5.3 software.

Row | Structure (SMILES) | AUC (iv, i.v., 2 mg/kg) [ng·h/mL] | half-life (iv, i.v., 2 mg/kg) [h] | bioavailability (po) [%] | AUC (po, p.o. (i.g.), 10 mg/kg) [ng·h/mL] | Cmax (po, p.o. (i.g.), 10 mg/kg) [ng/mL]
1 | Cc1c(NC(=O)c2nc(CNCCO)cn2C)cccc1-c1cccc(NC(=O)c2ccc(CNCCO)cn2)c1Cl [Example 1, N-(2-chloro-3′-(4-(((2-hydroxyethyl)amino)methyl)-1-methyl-1H-imidazole-2-carboxamido)-2′-methyl-[1,1′-biphenyl]-3-yl)-5-(((2-hydroxyethyl)amino)methyl)picolinamide] | 596 | 2.05 | 56 | 1670 | 415
2 | Cc1c(NC(=O)c2nc3c(s2)CN(C)CC3)cncc1-c1cccc(NC(=O)c2nc3c(n2C)CCN(C)C3)c1C [Example 5, N-(5-(3-(1,5-dimethyl-4,5,6,7-tetrahydro-1H-imidazo[4,5-c]pyridine-2-carboxamido)-2-methylphenyl)-4-methylpyridin-3-yl)-5-methyl-4,5,6,7-tetrahydrothiazolo[5,4-c]pyridine-2-carboxamide] | 612 | 2.5 | 68 | 2080 | 432
3 | Cc1c(NC(=O)c2nc3c(s2)CN(C)CC3)cncc1-c1cccc(NC(=O)c2nc3c(n2C)CCN(CC(C)O)C3)c1C (stereo not drawn) [Example 6, N-(5-(3-(5-(2-hydroxypropyl)-1-methyl-4,5,6,7-tetrahydro-1H-imidazo[4,5-c]pyridine-2-carboxamido)-2-methylphenyl)-4-methylpyridin-3-yl)-5-methyl-4,5,6,7-tetrahydrothiazolo[5,4-c]pyridine-2-carboxamide] | 676 | 1.36 | 62 | 2100 | 389
4 | Cc1c(NC(=O)c2nc3c(s2)CN(C)CC3)cncc1-c1cccc(-c2nc3cc(CN4CC[C@@H](C(=O)O)C4)cc(Cl)c3o2)c1C [Example 8, (R)-1-((7-chloro-2-(2-methyl-3-(4-methyl-5-(5-methyl-4,5,6,7-tetrahydrothiazolo[5,4-c]pyridine-2-carboxamido)pyridin-3-yl)phenyl)benzo[d]oxazol-5-yl)methyl)pyrrolidine-3-carboxylic acid] | 601 | 1.56 | 55 | 1650 | 402
5 | Cc1c(NC(=O)c2nc3c(n2C)CCN(C[C@H](C)O)C3)cccc1-c1cncc(-c2nc3cc(CN4CC[C@@H](C(=O)O)C4)cc(Cl)c3o2)c1C [Example 12] | 586 | – | 60 | 1760 | 442

Further lines, results first:

Row | AUC (iv, i.v., 2 mg/kg) [ng·h/mL] | half-life (iv, i.v., 2 mg/kg) [h] | bioavailability (po) [%] | AUC (po, p.o. (i.g.), 10 mg/kg) [ng·h/mL] | Cmax (po, p.o. (i.g.), 10 mg/kg) [ng/mL] | Structure (SMILES)
6 | 578 | 2.42 | 53 | 1530 | 365 | Cc1c(NC(=O)c2nc3c(s2)CNCC3)cccc1-c1cccc(-c2nc3cc(CN4CC[C@@H](C(=O)O)C4)cnc3o2)c1C [Example 18, (R)-1-((2-(2,2′-dimethyl-3′-(4,5,6,7-tetrahydrothiazolo[5,4-c]pyridine-2-carboxamido)-[1,1′-biphenyl]-3-yl)oxazolo[5,4-b]pyridin-6-yl)methyl)pyrrolidine-3-carboxylic acid trifluoroacetate]
7 | 578 | 1.46 | 51 | 1470 | 488 | Cc1c(NC(=O)c2nc3c(s2)CN(C[C@H](C)O)CC3)cccc1-c1cccc(-c2nc3cc(CN4CC[C@@H](C(=O)O)C4)cnc3o2)c1C [Example 22, (R)-1-((2-(3′-(5-((S)-2-hydroxypropyl)-4,5,6,7-tetrahydrothiazolo[5,4-c]pyridine-2-carboxamido)-2,2′-dimethyl-[1,1′-biphenyl]-3-yl)oxazolo[5,4-b]pyridin-6-yl)methyl)pyrrolidine-3-carboxylic acid]
8 | 612 | 2.35 | 60 | 1840 | 435 | Cc1c(NC(=O)c2nc3c(s2)CN(C)CC3)cccc1-c1cncc(-c2nc3cc(CN4CC[C@@H](C(=O)O)C4)cc(C#N)c3o2)c1C [Example 25]
